Where “and” joins values, the source holds several entries; their conditions need not be identical. Identical values can stand only once. Like-named read-outs stand apart in the source and are kept apart here.
Tests used:
[1] = target: T1, prostaglandin G/H synthase-1 (Ovis aries, UniProt P05979); test: Inhibition of prostaglandin G/H synthase-1 (conversion of [14C]arachidonic acid to products); type: biochemical; conditions: enzyme purified from ram seminal vesicles, 15 min preincubation, pH 7.4, room temperature
T1 construct: purified from ram seminal vesicles; from tissue; host or cells: ram seminal vesicles
T1 sequence (P05979 25-600): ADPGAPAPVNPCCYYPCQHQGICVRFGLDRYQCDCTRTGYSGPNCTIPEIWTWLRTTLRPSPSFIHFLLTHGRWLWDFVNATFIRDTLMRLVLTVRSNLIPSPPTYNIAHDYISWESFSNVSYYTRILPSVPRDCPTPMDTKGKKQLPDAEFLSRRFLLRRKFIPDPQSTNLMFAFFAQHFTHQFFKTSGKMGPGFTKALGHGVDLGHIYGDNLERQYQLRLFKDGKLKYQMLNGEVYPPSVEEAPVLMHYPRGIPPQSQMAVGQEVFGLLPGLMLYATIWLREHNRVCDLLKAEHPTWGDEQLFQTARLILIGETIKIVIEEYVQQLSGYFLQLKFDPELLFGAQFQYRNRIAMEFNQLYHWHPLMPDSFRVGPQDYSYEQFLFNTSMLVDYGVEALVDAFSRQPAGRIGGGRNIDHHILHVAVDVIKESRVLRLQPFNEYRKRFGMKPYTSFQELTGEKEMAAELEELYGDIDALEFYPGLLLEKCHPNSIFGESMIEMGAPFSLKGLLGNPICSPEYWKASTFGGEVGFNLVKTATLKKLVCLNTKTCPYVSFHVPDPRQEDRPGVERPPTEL
Method: (§1) The compounds of the present invention were evaluated as selective inhibitors of prostaglandin G/H synthase-2 by determining the effect of the compounds on the conversion of [^14 C]arachidonic acid to products by prostaglandin G/H synthase-2 purified from sheep placenta. This enzyme shares immunoreactivity and sequence homology with human prostaglandin G/H synthase-2. The effects of the compounds on prostaglandin G/H synthase-1 purified from ram seminal vesicles is used for the evaluation of inhibitory selectivity.
(§2) Each compound was preincubated for 15 minutes at room temperature in 50 mM sodium phosphate buffer at pH 7.4 containing 3.33 mM reduced glutathione, 2.67 mM epinephrine and 6.6% dimethylsulfoxide with sufficient enzyme to cause approximately 30% conversion of substrate to products after 15 minutes incubation in the absence of inhibitory compounds. Reactions with 24 μM arachidonic acid are initiated by the addition of a one third volume of 50 mM sodium phosphate buffer, pH 7.4, containing 3.33 mM reduced glutathione, 2.67 mM epinephrineβ and [^14 C] arachidonic acid.
(§3) Reactions were terminated after 15 minutes incubation at room temperature by the addition of 1.875 volumes of methanol:acetic acid (100:0.1) containing 0.5 mg/ml triphenylphosphine. The reaction products were separated from the unconverted substrate by high performance liquid chromatography and quantified by on-line radiometric detection. Compound effects were computed as percent inhibition of blank-adjusted mean product formation in uninhibited incubations.

[2] = target: T2, prostaglandin G/H synthase-2 (Ovis aries, UniProt P79208); test: Inhibition of prostaglandin G/H synthase-2 (conversion of [14C]arachidonic acid to products); type: biochemical; conditions: enzyme purified from sheep placenta, 15 min preincubation, pH 7.4, room temperature
T2 construct: purified from sheep placenta; from tissue; host or cells: sheep placenta
Method: as §1, §2, §3

[3] = pH 7.4, 10 μM, read-out: % Inhibition of PGHS-1 at 10 μM
[4] = pH 7.4, 100 μM, read-out: % Inhibition of PGHS-1 at 100 μM
[5] = pH 7.4, 10 μM, read-out: % Inhibition of PGHS-2 at 10 μM
[6] = pH 7.4, 100 μM, read-out: % Inhibition of PGHS-2 at 100 μM
[7] = pH 7.4, read-out: % Inhibition of PGHS-1 at 10 μM, 10 μM
[8] = pH 7.4, read-out: % Inhibition of PGHS-1 at 100 μM, 100 μM
[9] = pH 7.4, read-out: % Inhibition of PGHS-2 at 10 μM, 10 μM
[10] = pH 7.4, read-out: % Inhibition of PGHS-2 at 100 μM, 100 μM

T2 sequence (P79208 17-603): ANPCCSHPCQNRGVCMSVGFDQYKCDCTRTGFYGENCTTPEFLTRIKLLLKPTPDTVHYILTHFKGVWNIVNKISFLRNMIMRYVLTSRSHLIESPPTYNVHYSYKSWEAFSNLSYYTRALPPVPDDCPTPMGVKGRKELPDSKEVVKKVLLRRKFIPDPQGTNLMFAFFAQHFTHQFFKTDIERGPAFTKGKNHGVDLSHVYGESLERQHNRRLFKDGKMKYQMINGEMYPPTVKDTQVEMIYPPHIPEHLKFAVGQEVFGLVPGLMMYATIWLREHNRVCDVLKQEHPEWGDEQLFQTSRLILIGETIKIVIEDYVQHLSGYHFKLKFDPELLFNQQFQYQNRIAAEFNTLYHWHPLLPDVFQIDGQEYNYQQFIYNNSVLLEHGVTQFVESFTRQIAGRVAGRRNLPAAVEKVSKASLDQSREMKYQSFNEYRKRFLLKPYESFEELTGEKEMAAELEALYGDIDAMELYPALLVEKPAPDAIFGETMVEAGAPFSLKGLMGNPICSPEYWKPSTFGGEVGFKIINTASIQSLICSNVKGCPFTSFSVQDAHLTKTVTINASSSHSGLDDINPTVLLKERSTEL

Structure (SMILES) | inhibition at 10 µM [1, 3] | inhibition at 100 µM [1, 4] | inhibition at 10 µM [2, 5] | inhibition at 100 µM [2, 6] | % Inhibition of PGHS-1 at 100 μM [1] | % Inhibition of PGHS-2 at 10 μM [2] | % Inhibition of PGHS-2 at 100 μM [2] | inhibition at 10 µM [1, 7] | inhibition at 100 µM [1, 8] | inhibition at 10 µM [2, 9] | inhibition at 100 µM [2, 10] | % Inhibition of PGHS-1 at 10 μM ([1]; 10 μM)
COC(=O)CSC1c2ccccc2C=Cc2ccccc21 [Example 15, Methyl (5H-dibenzo[a,d]cyclohepten-5-yl-thio)acetate] | < 10% | < 10% | < 10% | 31% | – | – | – | – | – | – | – | –
COC(=O)CSC1(c2ccccc2)c2ccccc2-c2ccccc21 [Example 14, Methyl (9-phenylfluoren-9-yl-thio)acetate] | < 10% | < 10% | 14% | 50% | – | – | – | – | – | – | – | –
COC(=O)CSC(c1ccc(OC)cc1)(c1ccc(OC)cc1)c1ccc(OC)cc1 [Example 12, Methyl [[(tris-4-methoxyphenyl)methyl]thio]acetate] | – | 32% | 79% | 80% | 17% | 83% | 86% | – | – | – | – | –
COC(=O)CSC(c1ccccc1)c1ccccc1 [Example 1, Methyl [(diphenylmethyl)thio]acetate] | – | – | – | – | – | – | – | 20% | 42% | 56% | 84% | –
COC(=O)CSC(c1ccccc1)(c1ccc(OC)cc1)c1ccc(OC)cc1 [Example 13, Methyl [[(bis-4-methoxyphenyl)phenylmethyl]thio]acetate] | < 10% | < 10% | 41% | 49% | – | – | – | – | – | – | – | –
COC(=O)CSC(c1ccccc1OC)c1ccccc1OC [Example 8, Methyl [[bis-(2-methoxyphenyl)methyl]thio]acetate] | – | – | – | – | – | – | – | – | – | 14% | 77% | –
COC(=O)CSC(c1ccc(C)cc1)c1ccc(C)cc1 [Example 6, Methyl [[bis-(4-methylphenyl)methyl]thio]acetate] | – | – | – | – | – | – | – | < 10% | < 10% | 11% | 52% | –
COC(=O)CSC(c1ccc(N(C)C)cc1)c1ccc(N(C)C)cc1 [Example 4, Methyl [[bis-(4-dimethylaminophenyl)methyl]thio]acetate] | 42% | 68% | 86% | 96% | 72% | 92% | 99% and 92% | – | – | – | – | 31%
COC(=O)CSC1c2ccccc2-c2ccccc21 [Example 10, Methyl (9-fluorenylthio)acetate] | < 10% | 18% | 30% | 77% | – | – | – | – | – | – | – | –
COC(=O)CSC(c1ccc(F)cc1)c1ccc(F)cc1 [Example 5, Methyl [[bis-(4-fluorophenyl)methyl]thio]acetate] | – | – | – | – | – | – | 40% | < 10% | < 10% | – | 52% | –
COC(=O)CSC1c2ccccc2CCc2ccccc21 [Example 17, Methyl (10, 11-dihydro-5H-dibenzo[a,d]cyclohepten-5-yl-thio)acetate] | < 10% | < 10% | 8% | 17% | – | – | – | – | – | – | – | –
COC(=O)CSC(c1cccs1)c1cccs1 [Example 9, Methyl [[bis-(2-thienyl)methyl]thio]acetate] | < 10% | < 10% | < 10% | 33% | – | – | – | – | – | – | – | –
COC(=O)CSC(c1ccccc1)(c1ccccc1)c1ccccc1 [Example 11, Methyl [(triphenylmethyl)thio]acetate] | < 10% | 10% | 29% | 62% | – | – | – | – | – | – | – | –
COC(=O)CSC(c1ccc(Cl)cc1)c1ccc(Cl)cc1 [Example 3, Methyl [[bis-(4-chlorophenyl)methyl]thio]acetate] | – | – | – | – | – | – | 46% | – | – | – | 45% | –
COC(=O)CSC1c2ccccc2Oc2ccccc21 [Example 16, Methyl (xanthen-9-yl-thio)acetate] | < 10% | – | 41% | 78% | – | 50% | 85% | – | – | – | – | –
COC(=O)CSC(c1ccc(OC)cc1)c1ccc(OC)cc1 [Example 2, Methyl [[bis-(4-methoxyphenyl)methyl]thio]acetate] | – | – | – | – | 13% | 34% | 74% | < 10% | < 10% | 23% | 79% | –
COC(=O)CSC(c1ccccc1Cl)c1ccccc1Cl [Example 7, Methyl [[bis-(2-chlorophenyl)methyl]thio]acetate] | – | – | – | – | – | – | – | < 10% | < 10% | < 10% | 37% | –

Reference: patent US5571825A, “Method of selectively inhibiting prostaglandin G/H synthase-2” (Warner-Lambert Company, priority 1995, dated 1996)
